{"source": "the Kinase Knowledgebase extract (Sharma et al. 2016)", "biological_target": "CDK2 (human) (UniProt P24941)", "experiment": "Enzyme Assay"}
{"smiles": "COc1ccc(C(=O)Nc2ccc(C(=O)N3CCC(Oc4cnccn4)CC3)o2)cc1", "values": [{"measurement": "IC50", "value": "≥ 40", "unit": "µM"}]}
{"smiles": "O=C(Nc1ccc(-n2cncn2)cc1)c1ccc(C(=O)Nc2ccc3c(c2)OCO3)s1", "values": [{"measurement": "IC50", "value": "≥ 40", "unit": "µM"}]}
{"smiles": "COc1ccc(NC(=O)c2ccc(C(=O)Nc3ccc(-n4cncn4)cc3)s2)c(C(=O)O)c1", "values": [{"measurement": "IC50", "value": "1 to 40", "unit": "µM"}]}
{"smiles": "O=C(Nc1ccc(-n2cncn2)c(F)c1)c1ccc(C(=O)Nc2ccccc2Oc2ccccc2)s1", "values": [{"measurement": "IC50", "value": "≥ 40", "unit": "µM"}]}
{"smiles": "CC(=O)N1CCC(NC(=O)c2ccc(C(=O)Nc3ccc(-n4cncn4)cc3)s2)CC1", "values": [{"measurement": "IC50", "value": "1 to 40", "unit": "µM"}]}
{"smiles": "O=C(NCCN1CCCCC1)c1ccc(C(=O)Nc2ccc(-n3cncn3)cc2)s1", "values": [{"measurement": "IC50", "value": "≥ 40", "unit": "µM"}]}
{"smiles": "O=C(Nc1ccc(-n2cncn2)cc1)c1ccc(C(=O)N2CCOCC2)s1", "values": [{"measurement": "IC50", "value": "≥ 40", "unit": "µM"}]}
